Assay results as given in patent US20060217340A1, “Methods and products for treating hypertension by modulation of TRPC3 channel activity” (University of Vermont and State Agricultural College, priority 2005, published 2006).

Legend:
TRPC3 = assay: Western analysis of TRPC3 protein expression in arteries; type: cell-based, rat; conditions: Angiotensin-II hypertensive rats; cerebral and mesenteric arteries
Method: (§1) Western Analysis. Arterial segments were homogenized in lysis buffer (5 minutes, 4° C.) containing (in mM): 40 CAPS, 1 DL-Dithiothreitol (DTT), 10 EDTA, 15 MgCl2, 115 NaCl, 1 NaOrthovanadate, 1 NaF, 2.5 Urea, and 0.25% deoxychlorate, 10% glycerol, 1% NP-40, 0.2% SDS, and 1:50 mammalian protease inhibitor cocktail (Sigma, St. Louis, Mo., USA). Equal amounts of sample protein were separated on a 10% polyacrylamide gel and transferred to a nitrocellulose membrane. The membranes were exposed to a TRPC3 or TRPC6 polyclonal antibody (anti-rabbit 1:200 dilution, Alomone Labs, Jerusalem, Israel) and a […] (GAPDH) monoclonal antibody (anti-mouse, 1:1000 dilution, Chemicon Labs, Temecula, Calif., USA). Alexa-Fluor 680® goat anti-rabbit (Molecular Probes, Eugene, Oreg., USA) and IRDyeTM800 anti-mouse (Rockland Immunochemicals, Gilbertsville, Pa., USA) were used to fluorescently label the TRPC3 and GAPDH antibodies respectively. The density of signals specific for the TRPC3 and GAPDH bands in a given lane on a membrane were measured after scanning the membrane with an Odyssey® infared imaging system (Li-COR Biosciences, Lincoln, Nebr., USA). Quantified amounts were normalized to a total protein amount lane on the polyacrylamide gel.
Oligodeoxynucleotide Sequences and Reverse Permeabilization. TRPC6 sense and antisense oligodeoxynucleotides (ODN's) were designed as previously described (Welsh et al 2002 Circ Res 90, 248-250) and were as follows: sense, 5′-[…]-3′ (SEQ ID: 3) and 5′-GCACACGCAGCCTCTTCAC-3′ (SEQ ID: 4) antisense, 5′-[…]-3′ (SEQ ID: 5) and 5′-[…]-3′ (SEQ ID: 6). TRPC3 sense and antisense ODN's were designed based on the rat TRPC3 gene (Ohki et al 2000 J Biol Chem 275: 39055-39060) and are as follows: sense, 5′-[…]-3′ (SEQ ID: 7) and 5′-[…]-3′ (SEQ ID: 8); anti-sense, 5′-[…]-3′ (SEQ ID: 9) and 5′-[…]-3′ (SEQ ID: 10). The last five bases on the 5′ and 3′ end were phosphorothioated in order to limit ODN degradation. […]

TRPC6 = assay: Western analysis of TRPC6 protein expression in arteries; type: cell-based, rat; conditions: Angiotensin-II hypertensive rats; cerebral arteries
Method: as §1
Oligodeoxynucleotide Sequences and Reverse Permeabilization. […]

[1] = Blood pressure (MAP) by tailcuff; type: in vivo, rat; conditions: 12 days subcutaneous osmotic pump, tailcuff just prior to euthanasia
Method: Animals and tissues. Twelve- to 16-week old male Sprague-Dawley rats, spontaneously hypertensive rats (SHR), and Wistar-Kyoto rats ([…]) (Charles River Laboratories, St. Constant, Canada) were studied. All animal use procedures were in accordance with institutional guidelines and approved by the institutional Animal Care and Use Committee at the University of Vermont. Rats were euthanized with an injection of pentobarbitone (150 mg/kg ip) followed by exsanguination. The brain was removed and cerebellar and cerebral arteries (between 125 and 225 μm diameter) were dissected free in ice-cold MOPS-buffered saline solution containing (in mM): 3 MOPS, 145 NaCl, 5 KCl, 1 MgSO4.7H2O, 2.5 CaCl2, 1 KH2PO4, 0.02 EGTA, 2 pyruvate, 5 glucose and 1% bovine serum albumin (BSA) at pH 7.4. Angiotensin II or a control vehicle (physiological saline solution) was administered for 12 days using a subcutaneous osmotic pump. Blood pressures (MAP) were measured by tailcuff just prior to euthanasia and averaged 93±2 mm Hg in control rats and 146±5 mm Hg in Angiotensin II treated rats.

Substance: Angiotensin II (DRVYIHPF; Angiotensin-2; UniProt P01015 25-32, looked up)
- expression of TRPC3 versus normotensive controls (TRPC3): trends towards increased expression
- expression of TRPC6 versus normotensive controls (TRPC6): increased expression
- Blood pressure (MAP) [1]: 146±5 mm Hg
